Test results as given in patent US8053426B2, “Progesterone receptor antagonists” (Bayer Schering Pharma AG, priority 2006, dated 2011).

Key:
[1] = target: T1, human progesterone receptor B (PR-B) (Homo sapiens, UniProt P06401); assay: Agonistic activity, MTV-LUC reporter in SK-N-MC cells stably transfected with PR-B; type: cell-based; conditions: 24 hours; for Efficacy, PR-B: relative LUC activity
T1 construct: expressed in transfected cells; host or cells: SK-N-MC human neuroblastoma cells, stably transfected with pRChPR-B-neo and pMMTV-LUC
T1 sequence (P06401 1-933): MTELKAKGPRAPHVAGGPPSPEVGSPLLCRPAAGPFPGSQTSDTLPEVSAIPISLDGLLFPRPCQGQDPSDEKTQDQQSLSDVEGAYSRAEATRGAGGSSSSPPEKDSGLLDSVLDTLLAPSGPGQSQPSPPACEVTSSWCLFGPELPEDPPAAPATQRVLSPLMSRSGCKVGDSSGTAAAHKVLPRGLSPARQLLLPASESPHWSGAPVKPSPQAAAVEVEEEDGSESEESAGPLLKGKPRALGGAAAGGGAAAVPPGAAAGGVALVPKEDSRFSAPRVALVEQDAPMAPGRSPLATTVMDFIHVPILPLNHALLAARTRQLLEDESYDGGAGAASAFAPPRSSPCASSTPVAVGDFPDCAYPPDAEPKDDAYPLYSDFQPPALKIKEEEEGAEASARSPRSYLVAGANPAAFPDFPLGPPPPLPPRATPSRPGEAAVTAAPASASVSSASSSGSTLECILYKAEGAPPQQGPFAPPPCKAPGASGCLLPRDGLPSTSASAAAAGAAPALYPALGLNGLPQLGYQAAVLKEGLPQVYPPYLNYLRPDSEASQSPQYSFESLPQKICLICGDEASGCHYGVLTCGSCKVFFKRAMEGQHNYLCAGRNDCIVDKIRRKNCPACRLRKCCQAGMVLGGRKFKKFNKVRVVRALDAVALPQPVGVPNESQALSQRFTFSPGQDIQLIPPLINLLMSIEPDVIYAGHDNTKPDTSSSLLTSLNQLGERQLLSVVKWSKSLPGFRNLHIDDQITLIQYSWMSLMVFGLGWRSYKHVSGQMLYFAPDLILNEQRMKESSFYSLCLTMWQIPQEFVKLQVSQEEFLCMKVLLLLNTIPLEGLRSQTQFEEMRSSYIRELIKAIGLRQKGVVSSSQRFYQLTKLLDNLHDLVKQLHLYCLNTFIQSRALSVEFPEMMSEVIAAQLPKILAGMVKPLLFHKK
Description: (§1) SK-N-MC cells (human neuroblastoma cells), stably transfected with plasmids, which express human progesterone receptor B (pRChPR-B-neo) or human progesterone receptor A (pRChPR-A-neo) and a reporter construct (pMMTV-LUC), were incubated for 24 hours, either in the absence (negative control) or in the presence of increasing amounts of 11β-[4-(1,2-dihydroxy-ethyl)phenyl]-20,20,21,21,21-pentafluoro-17-hydroxy-19-nor-17α-pregna-4,9-dien-3-one or 20,20,21,21,21-pentafluoro-17-hydroxy-11β-[4-(hydroxyacetyl)-phenyl]-19-nor-17α-pregna-4,9-dien-3-one (0.01 nmol/l, 0.1 nmol/l, 1 nmol/l, 10 nmol/l, 100 nmol/l and 1 μmol/l), in order to determine the agonistic efficacy. As a positive control of reporter gene induction, the cells were treated with the synthetic gestagen promegestone (0.01 nmol/l, 0.1 nmol/l, 1 nmol/l, 10 nmol/l, 100 nmol/l and 1 μmol/l). To determine the antagonistic activity, the cells were treated with 0.1 nmol/l of promegestone and additionally with increasing amounts of 11β-[4-(1,2-dihydroxyethyl)phenyl]-20,20,21,21,21-pentafluoro-17-hydroxy-19-nor-17α-pregna-4,9-dien-3-one or 20,20,21,21,21-pentafluoro-17-hydroxy-11β-[4-(hydroxyacetyl)phenyl]-19-nor-17α-pregna-4,9-dien-3-one (0.01 nmol/l, 0.1 nmol/l, 1 nmol/l, 10 nmol/l, 100 nmol/l and 1 μmol/l). […] The activity of the LUC reporter gene (LUC=luciferase) was determined in the cell lyzates and measured as RLU (relative light units).

[2] = target: T1, human progesterone receptor B (PR-B); assay: Antagonistic activity against promegestone, MTV-LUC reporter in SK-N-MC cells stably transfected with PR-B; type: cell-based; conditions: antagonistic activity vs 0.1 nmol/l promegestone, mean ± SD; for IC50: read-out: Potency IC50, PR-B
Description: as §1

[3] = Metabolic stability in human liver microsomes (HLM); type: in vitro ADME; conditions: 60 minutes, 37° C.
Description: Human liver microsomes (HLM) were used to assess the metabolic stability of substances of general formula I.
The incubations were carried out in duplicate with HLM and an NADPH-generating system using a shaker bath at 37° C. The incubation mixture (consisting of cofactor solution, potassium phosphate buffer and microsome preparation) was freshly prepared according to the Table below.
(§2) The incubation volume was 0.25 ml. The incubation mixture was preincubated for three minutes at 37° C. The reaction was started by the addition of the test substance (final concentration 50 μM). The reaction was ended after an incubation time of 60 minutes by the addition of 250 μl of methanol and the mixture was then centrifuged to pellet the protein. The samples were stored at −18° C. for subsequent RP-HPLC analysis.
as §2, with “concentration 10” for “concentration 50”

pregnant rats = assay: Abortion test on female rats; type: in vivo, rat; conditions: 1.5 mg/kg subcutaneously daily d5-d7 p.c., autopsy d9 p.c.
Description: The antigestagenic action of the progesterone receptor antagonists according to the invention was tested on pregnant rats (6 rats per group) on days 5 to 7 post coitum under conventional housing and feeding conditions.
After successful copulation, the pregnant animals (presence of sperm in the vaginal smear on day 1 of pregnancy=d1 p.c.) were randomized and divided up into the treatment group and the control group. Each animal was then injected subcutaneously with 1.5 mg/kg of the test substance (11β-[4-(1,2-Dihydroxyethyl)phenyl]-20,20,21,21,21-pentafluoro-17-hydroxy-19-nor-17α-pregna-4,9-dien-3-one according to Example 1 or 20,20,21,21,21-pentafluoro-17-hydroxy-11β-[4-(hydroxyacetyl)phenyl]-19-nor-17α-pregna-4,9-dien-3-one according to Example 3) or 1.0 ml/kg of vehicle (benzyl benzoate/castor oil: 1+4[v/v]) daily from day 5 to day 7 (d5-d7 p.c.).
The autopsy was performed on day 9 (d9 p.c.). As the parameter of antigestagenic action, the uterus was examined for the presence of implantation sites. The complete absence of implantation sites as well as the presence of pathological, hemorrhagic or otherwise abnormal implantation sites on day 9 (d9 p.c.) were evaluated as abortions.

[4] = target: T2, human progesterone receptor A (PR-A) (Homo sapiens, UniProt P06401); assay: Antagonistic activity against promegestone, MTV-LUC reporter in SK-N-MC cells stably transfected with PR-A; type: cell-based; conditions: for selectivity in respect of one progesterone receptor isoform: PR-A versus PR-B; for selectivity in respect of one progesterone receptor isoform / Efficacy, PR-A / IC50: SK-N-MC cells; for Efficacy, PR-A / IC50: antagonistic activity vs 0.1 nmol/l promegestone, mean ± SD; for IC50: read-out: Potency IC50, PR-A; for times less potent than 11β-(4-acetylphenyl)-20,20,21,21,21-pentafluoro-17-hydroxy-19-nor-17α-pregna-4,9-dien-3-one at the progesterone receptors: antagonistic potency, figures match the ratio of the PR-A IC50 values
T2 construct: expressed in transfected cells; host or cells: SK-N-MC human neuroblastoma cells, stably transfected with pRChPR-A-neo and pMMTV-LUC
T2 sequence (P06401 1-769 isoform P06401-2): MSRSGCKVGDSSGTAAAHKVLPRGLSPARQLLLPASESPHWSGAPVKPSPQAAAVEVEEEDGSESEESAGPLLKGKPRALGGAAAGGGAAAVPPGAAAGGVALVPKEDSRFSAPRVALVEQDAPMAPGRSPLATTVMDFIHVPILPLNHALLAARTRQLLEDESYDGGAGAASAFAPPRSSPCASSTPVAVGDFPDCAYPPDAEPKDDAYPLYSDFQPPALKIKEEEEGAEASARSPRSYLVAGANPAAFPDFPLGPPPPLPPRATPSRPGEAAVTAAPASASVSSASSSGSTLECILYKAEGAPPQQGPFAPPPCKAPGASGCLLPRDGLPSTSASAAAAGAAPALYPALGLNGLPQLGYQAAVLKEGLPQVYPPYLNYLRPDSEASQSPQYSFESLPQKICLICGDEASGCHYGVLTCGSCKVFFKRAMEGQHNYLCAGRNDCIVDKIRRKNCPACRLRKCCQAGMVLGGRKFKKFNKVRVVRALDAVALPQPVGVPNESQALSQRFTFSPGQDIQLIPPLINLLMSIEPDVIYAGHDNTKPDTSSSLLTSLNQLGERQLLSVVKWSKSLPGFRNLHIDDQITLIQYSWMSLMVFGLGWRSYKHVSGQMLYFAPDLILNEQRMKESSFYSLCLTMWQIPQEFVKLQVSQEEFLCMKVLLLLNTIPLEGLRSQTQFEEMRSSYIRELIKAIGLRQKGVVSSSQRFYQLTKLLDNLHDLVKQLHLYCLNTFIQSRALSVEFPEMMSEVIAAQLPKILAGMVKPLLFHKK
Description: as §1

35-day-old rabbits = assay: Determination of the McPhail index on the rabbit; type: in vivo; conditions: 3 mg/kg/d test substance + 0.2 mg/kg/d progesterone s.c. day 7 to 10, autopsy day 11, 1=no, 4=maximum glandular differentiation
Description: The antigestagenic efficacy of the progesterone receptor antagonists according to the invention was tested on 35-day-old rabbits under conventional housing and feeding conditions.
As a preparatory measure, the animals were treated subcutaneously with 5.0 μg/kg/d with 17β-estradiol from day 1 to day 4. To determine the antigestagenic efficacy, the animals were treated subcutaneously from day 7 to day 10 with 0.2 mg/kg/d of progesterone and 3 mg/kg/d of the test substance (11β-[4-(1,2-Dihydroxyethyl)phenyl]-20,20,21,21,21-pentafluoro-17-hydroxy-19-nor-17α-pregna-4,9-dien-3-one according to Example 1 or 20,20,21,21,21-pentafluoro-17-hydroxy-11β-[4-(hydroxyacetyl)phenyl]-19-nor-17α-pregna-4,9-dien-3-one according to Example 3) simultaneously. The vehicle used was a mixture of benzyl benzoate and castor oil in a ratio of 1+4 (v/v).
The autopsy was performed on day 11 after the start of treatment. The uteri were removed and fixed for histology. The McPhail index (degree of glandular differentiation) was determined by means of light microscopy (evaluation: 1=no glandular differentiation; 4=maximum glandular differentiation) as the parameter of antigestagenic efficacy (inhibition of the glandular differentiation caused by progesterone).

[5] = target: T2, human progesterone receptor A (PR-A); assay: Agonistic activity, MTV-LUC reporter in SK-N-MC cells stably transfected with PR-A; type: cell-based; conditions: 24 hours; for Efficacy, PR-A: relative LUC activity
Description: as §1

[6] = HLM 1.0 mg/ml, test substance 50 μM

Row | recovered in the supernatant (RP-HPLC) ([3]; HLM 0.4 mg/ml, test substance 10 μM) | EC50 ([1]; mean ± SD, read-out: Potency EC50, PR-B) | EC50 ([5]; mean ± SD, read-out: Potency EC50, PR-A) | Compound | Efficacy, PR-B [1] | Efficacy, PR-B [2] | IC50 [2] | recovered in the supernatant (RP-HPLC) [3, 6] | Abortion rate (pregnant rats) | selectivity in respect of one progesterone receptor isoform [4] | Efficacy, PR-A [4] | IC50 [4] | times less potent than 11β-(4-acetylphenyl)-20,20,21,21,21-pentafluoro-17-hydroxy-19-nor-17α-pregna-4,9-dien-3-one at the progesterone receptors [4] | McPhail index [median] (35-day-old rabbits) | Efficacy, PR-A [5]
1 |  |  |  | C[C@]12C[C@H](c3ccc(C(O)CO)cc3)C3=C4CCC(=O)C=C4CC[C@H]3[C@@H]1CC[C@@]2(O)C(F)(F)C(F)(F)F (mixture of isomers) [Example 1, 11β-[4-(1,2-dihydroxyethyl)phenyl]-20,20,21,21,21-pentafluoro-17-hydroxy-19-nor-17α-pregna-4,9-dien-3-one] | no effect | 100 ± 0% | 3.47 ± 0.46 nM | about 70% | 100% | Neither compound exhibits any selectivity | 100 ± 0% | 1.87 ± 0.23 nM | about 130 times | 1.0 | no effect
2 | 60% |  |  | CC(=O)c1ccc([C@H]2C[C@@]3(C)[C@@H](CC[C@@]3(O)C(F)(F)C(F)(F)F)[C@@H]3CCC4=CC(=O)CCC4=C32)cc1 [11β-(4-acetylphenyl)-20,20,21,21,21-pentafluoro-17-hydroxy-19-nor-17α-pregna-4,9-dien-3-one, reference compound] |  | 100 ± 0% | 0.02 ± 0.01 nM |  |  |  | 100 ± 0% | 0.014 ± 0.01 nM |  |  | 
3 |  |  |  | C[C@]12C[C@H](c3ccc(C(=O)CO)cc3)C3=C4CCC(=O)C=C4CC[C@H]3[C@@H]1CC[C@@]2(O)C(F)(F)C(F)(F)F [Example 3, 20,20,21,21,21-pentafluoro-17-hydroxy-11β-[4-(hydroxyacetyl)phenyl]-19-nor-17α-pregna-4,9-dien-3-one] | no effect | 100 ± 0% | 0.28 ± 0.08 nM | about 80% | 100% | Neither compound exhibits any selectivity | 100 ± 0% | 0.18 ± 0.06 nM | about 13 times | 1.0 | no effect
4 |  | 0.03 nM | 0.23 ± 0.03 nM | CCC(=O)[C@@]1(C)CC[C@H]2[C@@H]3CCC4=CC(=O)CCC4=C3CC[C@@]21C [Promegestone, promegestone, reference compound] | 100% |  |  |  |  |  |  |  |  |  | 100%
